Data: BindingDB's records for doi:10.1021/jm000320t (Gsk, 2001)
pKi: −log10 of the molar value.

Columns and labels:
Assay in all cases: In Vitro Enzyme Inhibition Assay
Cathepsin K = target: T1, Cathepsin K (Homo sapiens, UniProt P43235); details: pH 5.5; 22 °C
T1 sequence (P43235 whole entry): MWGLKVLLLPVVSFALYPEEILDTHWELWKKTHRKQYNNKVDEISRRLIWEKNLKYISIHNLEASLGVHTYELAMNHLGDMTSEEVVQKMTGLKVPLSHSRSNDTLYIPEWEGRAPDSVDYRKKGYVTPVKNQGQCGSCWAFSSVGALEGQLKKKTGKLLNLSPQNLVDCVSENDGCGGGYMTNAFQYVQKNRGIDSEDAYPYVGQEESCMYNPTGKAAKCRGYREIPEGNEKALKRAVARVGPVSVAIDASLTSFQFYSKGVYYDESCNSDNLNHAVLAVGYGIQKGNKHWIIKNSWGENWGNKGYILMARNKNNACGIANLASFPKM
Protocol: (§1) Assays were carried out in the presence of variable concentrations of test compound. Reactions were initiated by addition of enzyme to buffered solutions of inhibitor and substrate. Product fluorescence (excitation at 360 nm, emission at 460 nm) was monitored with a fluorescent plate reader.

Procathepsin L = Procathepsin L (Homo sapiens, UniProt P07711)
Chain of Procathepsin L (P07711 whole entry): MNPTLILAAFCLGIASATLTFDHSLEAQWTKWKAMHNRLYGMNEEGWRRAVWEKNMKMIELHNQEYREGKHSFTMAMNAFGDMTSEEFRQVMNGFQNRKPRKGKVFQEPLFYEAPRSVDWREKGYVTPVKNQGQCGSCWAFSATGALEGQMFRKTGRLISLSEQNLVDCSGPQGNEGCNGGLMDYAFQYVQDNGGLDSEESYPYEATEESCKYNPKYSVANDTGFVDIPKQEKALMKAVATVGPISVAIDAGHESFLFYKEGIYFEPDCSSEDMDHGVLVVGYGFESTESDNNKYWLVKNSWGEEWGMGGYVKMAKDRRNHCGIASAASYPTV
Protocol: as §1

Cathepsin S = Cathepsin S (Homo sapiens, UniProt P25774)
Chain of Cathepsin S (P25774 whole entry): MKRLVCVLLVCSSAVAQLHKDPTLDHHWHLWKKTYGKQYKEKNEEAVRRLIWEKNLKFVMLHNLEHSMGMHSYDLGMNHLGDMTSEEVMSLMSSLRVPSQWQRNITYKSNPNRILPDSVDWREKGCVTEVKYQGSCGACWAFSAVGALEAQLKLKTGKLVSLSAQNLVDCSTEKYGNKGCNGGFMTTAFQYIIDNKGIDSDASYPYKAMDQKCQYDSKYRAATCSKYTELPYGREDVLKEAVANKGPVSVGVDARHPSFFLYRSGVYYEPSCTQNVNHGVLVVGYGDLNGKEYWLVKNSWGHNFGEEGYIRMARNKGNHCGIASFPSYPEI
Protocol: as §1

- pKi (Cathepsin K): 7.11
- pKi (Procathepsin L): 6.40
- pKi (Cathepsin S): 6.54
Compound: CN[C@@H](CC(C)C)C(=O)N1CC(=O)C(NC(=O)[C@H](CC(C)C)NC(=O)OCc2ccccc2)C1 (stereo partly drawn) [[(2S)-1-{3-[(2S)-2-{[(benzyloxy)carbonyl]amino}-4-methylpentanamido]-4-oxopyrrolidin-1-yl}-4-methyl-1-oxopentan-2-yl](methyl)azanium chloride]
